In the supplement of paper PMC10721915:
± gives the standard deviation of the averaged measurements.

Legend:
Assay in all cases: relative cell growth vs untreated control (GI, NCI-DTP normalisation with time-zero) (fraction of control growth); higher = more growth / less inhibition
Details in all cases: treatment time: 120 h
COLO205 = test system: COLO205
Procedure: (§1)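 Cancer cell lines in 96-well plates were treated 48 h after seeding with M4076 (ATM inhibitor) and berzosertib (ATR inhibitor), alone or mixed, in 4-fold dilutions for 120 h. Protein was read by sulforhodamine B staining, background-subtracted and normalised NCI-DTP style to untreated control growth. Rows with one concentration equal to 0 are monotherapy.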

HEPG2 = test system: HEPG2
Procedure: as §1

MDAMB231 = test system: MDAMB231
Procedure: as §1

MV411 = test system: MV411
Procedure: as §1

PANC1 = test system: PANC1
Procedure: as §1

RAMOS = test system: RAMOS
Procedure: as §1

WSUNHL = test system: WSUNHL
Procedure: as §1

COc1cc2ncc3c(c2cc1-c1cn(C)nc1C)n(-c1c(F)cncc1OC)c(=O)n3C [M4076] + CNCc1ccc(-c2cc(-c3nc(-c4ccc(S(=O)(=O)C(C)C)cc4)cnc3N)on2)cc1 [berzosertib]
relative cell growth
Details	COLO205	HEPG2	MDAMB231	MV411	PANC1	RAMOS	WSUNHL
concentration of first compound 0.0195 µM, concentration of partner 0 M	1.18 ± 0.19	1.41 ± 0.32	1.06 ± 0.085	1.23 ± 0.16	1.27 ± 0.16	1.04 ± 0.031	1.22 ± 0.035
concentration of first compound 0.0195 µM, concentration of partner 0.2 µM	0.641	0.0154	1.1	1.18	0.992	1.14	1.48
concentration of first compound 0.0781 µM, concentration of partner 0 M	1.15 ± 0.18	1.4 ± 0.32	1.02 ± 0.082	1.28 ± 0.17	1.2 ± 0.15	1.12 ± 0.034	1.26 ± 0.036
concentration of first compound 0.0781 µM, concentration of partner 0.2 µM	0.668	0.000629	0.932	1.09	1.36	1.17	1.47
concentration of first compound 0.313 µM, concentration of partner 0 M	1.12 ± 0.18	1.23 ± 0.28	0.93 ± 0.074	1.24 ± 0.16	1.45 ± 0.18	1.01 ± 0.03	0.983 ± 0.028
concentration of first compound 0.313 µM, concentration of partner 0.2 µM	0.373	-0.027	0.499	0.887	0.541	1.12	1.07
concentration of first compound 1 µM, concentration of partner 0 M	0.959	0.829	0.858	0.903	0.96	0.888	0.649
concentration of first compound 1 µM, concentration of partner 0.0195 µM	0.916	0.596	0.907	1.22	0.764	0.918	0.896
concentration of first compound 1 µM, concentration of partner 0.0781 µM	0.37	0.0729	0.708	1.18	0.526	0.945	0.716
concentration of first compound 1 µM, concentration of partner 0.313 µM	0.105	-0.0203	0.198	0.312	0.0924	0.751	-0.00911
concentration of first compound 1 µM, concentration of partner 1.25 µM	0.0405	-0.023	-0.00535	-0.0158	-0.0345	0.0625	-0.0958
concentration of first compound 1 µM, concentration of partner 5 µM	-0.0244	-0.0325	-0.032	-0.0221	-0.0793	0.0153	-0.11
concentration of first compound 1.25 µM, concentration of partner 0 M	1.02 ± 0.16	1.16 ± 0.26	0.775 ± 0.062	1.09 ± 0.14	1.1 ± 0.14	0.914 ± 0.028	0.572 ± 0.016
concentration of first compound 1.25 µM, concentration of partner 0.2 µM	0.208	-0.0218	0.328	0.746	0.278	1.09	0.294
concentration of first compound 5 µM, concentration of partner 0 M	0.892 ± 0.14	0.843 ± 0.19	0.695 ± 0.056	0.708 ± 0.092	0.743 ± 0.095	0.778 ± 0.023	0.166 ± 0.0046
concentration of first compound 5 µM, concentration of partner 0.2 µM	0.172	-0.0276	0.42	0.603	0.309	0.915	0.0497

CNCc1ccc(-c2cc(-c3nc(-c4ccc(S(=O)(=O)C(C)C)cc4)cnc3N)on2)cc1 [berzosertib] + COc1cc2ncc3c(c2cc1-c1cn(C)nc1C)n(-c1c(F)cncc1OC)c(=O)n3C [M4076]
relative cell growth, concentration of partner 0 M
Details	COLO205	HEPG2	MDAMB231	MV411	PANC1	RAMOS	WSUNHL
concentration of first compound 0.0195 µM	1.1 ± 0.16	1.09 ± 0.22	1.06 ± 0.1	1.25 ± 0.16	1.12 ± 0.1	1.1 ± 0.036	1.44 ± 0.031
concentration of first compound 0.0781 µM	0.981 ± 0.15	0.33 ± 0.067	1.09 ± 0.1	1.32 ± 0.17	1.27 ± 0.11	1.11 ± 0.036	1.68 ± 0.036
concentration of first compound 0.2 µM	0.622	0.0562	0.976	0.778	0.892	1.16	1.18
concentration of first compound 0.313 µM	0.353 ± 0.053	0.0114 ± 0.0023	0.775 ± 0.073	0.429 ± 0.054	0.482 ± 0.043	1.05 ± 0.034	0.779 ± 0.017
concentration of first compound 1.25 µM	0.114 ± 0.017	-0.033 ± 0.0067	0.0906 ± 0.0085	-0.0241 ± 0.003	0.094 ± 0.0084	0.322 ± 0.011	-0.0504 ± 0.001
concentration of first compound 5 µM	0.00456 ± 0.00065	-0.0501 ± 0.01	-0.057 ± 0.0054	-0.0294 ± 0.0037	-0.0643 ± 0.0058	0.103 ± 0.0034	-0.0908 ± 0.0019
